Measurements taken from patent publication US7601708B2, “Bile-acid derived compounds for providing sustained systemic concentrations of drugs after oral administration” (XenoPort, Inc., priority 2000, dated 2009).

What was measured:
LBAT [1] = target: T1, LBAT (Homo sapiens, UniProt Q14973); experiment: Electrogenic transport in Xenopus oocytes expressing LBAT; format: cell-based; settings: maximal induced current relative to glycodeoxycholate (100 μM)
T1 sequence (Q14973 1-349): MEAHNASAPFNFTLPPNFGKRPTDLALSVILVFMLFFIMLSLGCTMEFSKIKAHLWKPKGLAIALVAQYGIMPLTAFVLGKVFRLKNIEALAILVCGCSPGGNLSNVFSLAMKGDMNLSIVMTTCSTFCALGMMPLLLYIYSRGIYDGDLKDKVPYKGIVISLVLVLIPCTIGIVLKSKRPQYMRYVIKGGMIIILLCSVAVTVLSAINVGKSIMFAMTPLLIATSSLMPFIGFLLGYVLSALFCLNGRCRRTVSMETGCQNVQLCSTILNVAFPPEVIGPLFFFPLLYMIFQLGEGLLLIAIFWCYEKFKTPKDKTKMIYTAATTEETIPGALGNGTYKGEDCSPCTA
Description: (b) Analysis of Electrogenic Transport in Xenopus Oocytes RNA Preparation: Human IBAT and LBAT Transporter cDNAs were subcloned into a modified pGEM plasmid that contains [NT] untranslated sequences from the Xenopus β-actin gene. These sequences increase RNA stability and protein expression. […] Xenopus oocyte isolation. Xenopus laevis frogs were anesthetized by immersion in Tricaine ([…] in deionized water) for 15 min. […] The oocytes were washed 6 times, and the buffer changed to frog ringer solution containing CaCl2 (1.8 mM). Remaining follicle cells were removed if necessary. Cells were incubated at 16° C., and each oocyte injected with […] solution. Electrophysiology measurements. […] Bath flow was controlled by an automated perfusion system (ALA Scientific Instruments, solenoid valves). For transporter pharmacology, oocytes were clamped at -60 to -90 mV, and continuous current measurements acquired using PowerLab Software and an ADInstruments digitizer. Current signals were lowpass filtered at 20 Hz and acquired at 4-8 Hz. All bath and drug-containing solutions were frog ringers solution containing CaCl2. […] The difference current (baseline subtracted from peak current during drug application) reflected the net movement of charge resulting from electrogenic transport and was directly proportional to tranport rate.

LBAT [2] = target: T2, LBAT (Homo sapiens, UniProt Q14973); experiment: In vitro uptake by CHO cells transfected with LBAT evaluated by LC-MS/MS; format: cell-based; settings: 0.06 to 1000 μM, 10 min; uptake by untransfected CHO K1 cells subtracted
T2 construct: expressed in transfected cells; host or cells: CHO
Description: (§1) Active transport of (8) by the bile acid transport system was evaluated in vitro by incubation of (8) or glycocholate (control substrate) with untransfected CHO K1 cells or CHO cells transfected with either IBAT or LBAT. Cells (10^5 cells/mL) were incubated in 96 well plates with varying concentrations (0.06 to 1000 μM) of (8) or glycocholate for 10 min. Cells were then washed with Hank's Balanced Salt Solution (HBSS) and lysed and extracted by addition of 100 μL of water followed by sonication. Concentrations of (8) or glycocholate in cell extracts were determined by direct injection onto an API 2000 LC/MS/MS equipped with an Agilent 1100 binary pump and autosampler. Separation was achieved using a Keystone BDS Hypersil 2×50 mm column heated to 45° C. during the analysis. The mobile phases were: 0.1% formic acid in water (A) and 0.1% formic acid in acetonitrile (B). The gradient condition was: 5% B for 1 min, increasing to 90% B in 0.2 min, maintained for 2.8 min and returning to 5% B for 2 min. A TurboIonSpray source was used on the API 2000. The analysis was performed in the positive ion mode and MRM transitions of 466/412 and 562/154 were used in the analysis of glycocholate and (8), respectively. Ten microliters of the cell extracts were injected. Peaks were integrated using Analyst quantitation software. […]

Carboxypeptidase A = target: T3, Carboxypeptidase A (Bos taurus, UniProt P00730); experiment: Stability towards purified carboxypeptidase A; format: in vitro ADME; settings: Carboxypeptidase A (10 units/mL); substrate 2.0 μM; no cofactors; 37° C.
T3 sequence (P00730 111-419): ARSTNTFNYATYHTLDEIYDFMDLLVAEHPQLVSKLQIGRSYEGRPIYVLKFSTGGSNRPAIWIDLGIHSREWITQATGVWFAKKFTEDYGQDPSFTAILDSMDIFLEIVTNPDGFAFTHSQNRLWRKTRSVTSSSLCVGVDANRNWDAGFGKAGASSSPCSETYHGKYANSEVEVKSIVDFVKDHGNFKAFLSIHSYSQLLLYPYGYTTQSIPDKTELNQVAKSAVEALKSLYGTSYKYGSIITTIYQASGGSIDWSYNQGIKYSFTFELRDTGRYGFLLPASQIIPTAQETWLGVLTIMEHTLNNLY

IBAT = target: T4, IBAT (Homo sapiens, UniProt Q12908); experiment: In vitro uptake by CHO cells transfected with IBAT evaluated by LC-MS/MS; format: cell-based; settings: 0.06 to 1000 μM, 10 min; uptake by untransfected CHO K1 cells subtracted
T4 construct: expressed in transfected cells; host or cells: CHO
T4 sequence (Q12908 whole entry): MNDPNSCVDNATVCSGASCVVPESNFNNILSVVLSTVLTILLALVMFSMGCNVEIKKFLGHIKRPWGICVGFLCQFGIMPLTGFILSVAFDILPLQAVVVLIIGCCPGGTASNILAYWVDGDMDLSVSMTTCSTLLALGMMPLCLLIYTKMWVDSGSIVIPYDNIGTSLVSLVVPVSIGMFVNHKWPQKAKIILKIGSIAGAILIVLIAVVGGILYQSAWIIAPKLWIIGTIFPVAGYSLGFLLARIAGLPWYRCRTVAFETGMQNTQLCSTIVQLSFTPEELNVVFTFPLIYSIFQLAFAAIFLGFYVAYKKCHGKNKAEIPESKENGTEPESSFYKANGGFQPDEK
Description: as §1

[3] = Secretion in bile after oral administration to bile duct-cannulated rats; format: in vivo, Sprague-Dawley rats; settings: single oral dose of (8) 85.25 mg/kg
Description: Sustained release of gabapentin from a prodrug that is subject to enterohepatic recirculation requires that a proportion of the intact prodrug be absorbed after oral administration and subsequently secreted into the bile intact. The potential for enterohepatic recirculation of intact (8) was examined in rats with indwelling bile duct fistulae. […] Bile was collected continuously in aliquots over 24 hours. Plasma and bile samples were frozen at −80° C. until analyzed. […] Concentrations of intact (8) in bile were similarly determined by LC/MS/MS. Bile (20 μL) was diluted 1:1000 with methanol and injected directly onto the HPLC system. Concentrations of (8) in bile reached a maximum at ˜6 hours post-dosing and were sustained up to 24 hours.

[4] = male, Sprague-Dawley, rat, in vivo, po, 85.25 mg/kg
[5] = Pharmacokinetics after oral administration to rats; settings: single oral dose of gabapentin 25 mg/kg

With `CC(CCC(=O)NCC(=O)NCC1(CC(=O)O)CCCCC1)C1CCC2C3C(O)CC4CC(O)CCC4(C)C3CC(O)C12C` (stereo not shown) [(13), Cholyl-Gly-Gabapentin] the “% Max. (GDC)” value (LBAT [1]) was 38%.

With `CC(CCC(=O)NCC1(CC(=O)O)CCCCC1)C1CCC2C3C(O)CC4CC(O)CCC4(C)C3CC(O)C12C` (stereo not shown) [Compound (8)] the “Active uptake into LBAT transfected cells” value (LBAT [2]) was “Active uptake”, the “Percent of Gabapentin Released in 60 min” value (Carboxypeptidase A) was “Stable” and the “Active uptake into IBAT transfected cells” value (IBAT) was “Active uptake”. The “time of maximum concentration of (8) in bile” value [3] was roughly 6 h, the “time to which concentrations of (8) in bile were sustained” value [3] was 24 h and the “gabapentin in plasma of bile duct-cannulated rats” value ([3]; analyte gabapentin) was “no gabapentin was detected”. The “time of maximum concentration of intact (8) in plasma” value [4] was roughly 8 h and the “time to which concentrations of intact (8) in plasma were sustained” value [4] was 24 h.

In the case of `NCC1(CC(=O)O)CCCCC1` [gabapentin, 1-aminomethyl-1-cyclohexaneacetic acid], the “terminal half-life of gabapentin in plasma” value [5] is reported as 2.4 ± 0.5 h.
